Experimental data reported in patent US8653069B2, “Aralkyl substituted piperidine or piperazine derivatives and their use for treating schizophrenia” (Jiangsu Hengyi Pharmaceutical Co., Ltd., priority 2008, dated 2014).
Counter-ions that a name gives are not always drawn. Like-named read-outs stand apart in the source and are kept apart here.

Columns and labels:
[1] = tested on: histidine auxotroph mutant of mouse salmonella TA97, TA98, TA100 and TA102
Excerpt: Bacterial Reverse Mutation Test of II-1
Strains: histidine auxotroph mutant of mouse salmonella TA97, TA98, TA100 and TA102.
Results: the test consists of two parts, i.e., −S9 and +S9. […] No bacteriostatic actions to all the strains are observed at all other doses, and the growth background is good.

[2] = target: T1, dopamine D2 receptor (Homo sapiens, UniProt P14416); assay: Dopamine D2 receptor-binding assay ([3H]Spiperone displacement); conditions: inhibition of binding of 0.4 nM [3H]Spiperone, CHO-hD2L film product, room temperature 120 minutes; read-out: IC50 (affinity to D2 receptor)
T1 construct: expressed in transfected cells; host or cells: CHO-hD2L cells (membrane preparation)
Experimental: A Dopamine D2 Receptor-Binding Assay
An isotope ligand for D2 receptor: [^3H]Spiperone (77.0 Ci/mmol); (+)Butaclamol; GF/C glass fiber media; a liposoluble scintillation solution; and the D2 receptor protein expressed by sf9 cells.
A binding assay of a film product of CHO-hD2L cells and [^3H]Spiperone is conducted in a 250 μl of 50 mM of Tris-HCl […] buffer (Ph=7.4) solution comprising 100 mM of NaCl, 1 mM of MgC12 and 1% of DMSO. A sample in duplicate containing compounds to be tested, 0.4 nM of [^3H]Spiperone and 12 ug of protein is maintained at room temperature for 120 minutes. The bound radioactive ligand is separated by flash filtration under reduced pressure using Whatman GF/B glass fiber filter pre-treated with 0.3% polyethylenelmine, and radioactivity maintained on the filter is measured using liquid scintillation spectrophotometry. The title compounds in the following examples are tested using the above test, which comprises first of all testing competitive inhibition rate of each compound at a concentration of 10 umol/L to binding of [^3H]Spiperone to D2 receptor through a rough screening; and compounds having inhibition rate higher than 95% are subjected to receptor binding assay under a series of concentrations to determine a half-inhibitory concentration (IC50, the concentration of a compound needed for inhibiting binding of 50% [^3H]Spiperone to D2 receptor). Two tubes under each concentration are measured, and each compound is subjected to two independent tests.

[3] = target: T2, rD2R (Rattus norvegicus, UniProt P61169); assay: Antagonistic test of D2 receptor (cAMP radioimmunoassay, Forskolin + Dopamine, CHO-rD2 cells); assay type: cell-based; conditions: 10 μM Forskolin + 10 μM Dopamine, cAMP generated
T2 construct: expressed in transfected cells; host or cells: CHO cells stably expressing rD2R (CHO-rD2)
Experimental: An Antagonistic Test of D2 Receptor
CHO-rD2 cell is seeded on a 96-well plate at a concentration of 30,000 cells/well, and cultured overnight; each medicine is dissolved in a serum-free F12 culture media containing 100 μM of IBMX, and is added to the above cell for preculturing 30 minutes at 37° C.; thereafter a serum-free F12 culture media containing 10 μM of Forskolin and 10 μM of Dopamine is added and react for 8 minutes, and then 100 μl of pre-cooled 1M HClO4 is added to terminate the reaction. The reaction solution is allowed to stand on ice for 40 minutes, and thereto 20 μl of 2M K2CO3 is added to neutralize the reaction solution. The reaction solution is centrifuged at 3,000 rpm for 15 minutes at 4° C., and a KClO4 deposit is discarded. An amount of supernatant is diluted in 0.05M of acetic acid buffer, and the amount of generated cAMP is measured with radioimmunoassay method. […] See the kit's instructions for detailed steps. Two tubes under each concentration of each compound are measured, and each compound is subjected to two independent tests.
The ordinate of the dose-effect curve represents a reduced percentage of the amount of generated cAMP through antagonist of DA by the compound.

[4] = Oral absorption in studies on animal models; assay type: in vivo
[5] = in vivo; conditions: mouse, po
[6] = tested on: schizophrenia behaviors in mice induced by apomorphine; assay: In vivo anti-schizophrenia activity: apomorphine-induced stereotyped behavior in mice; conditions: female KM mice, oral gavage 30 minutes before apomorphine 10 mg/kg i.p.; II-1 20 mg/kg, aripiprazole 5 mg/kg, risperidone 0.25 mg/kg
Experimental: A Test of In Vivo Anti-Schizophrenia Activity of Compound II-1
Apomorphine: apomorphine is dissolved in 0.1% ascorbic acid to form a solution having a dosage of 10 mg/kg.
Aripiprazole is dissolved in physiological saline to form a solution having a dosage of 5 mg/kg, and subjected to ultrasonication for dissolving.
Risperidone is dissolved in physiological saline to form a solution having a dosage of 0.25 mg/kg.
Compound II-1 is formulated to 20 mg/kg, and is formulated in situ for use.
Female KM mice, 18-22 g, are randomly divided into a solvent control group, a model control group, a positive control group, and various treatment groups of the tested medicines. Groups for behavior observation test contain 5 mice each group, and groups for activity observation test contain 4 mice each group.
(1) Administration in mice: each group of mice is administrated with 0.1 ml/10 g of the various tested medicines by oral gavage. […]
The stereotyped behavior numbers of the mice in various groups at six time points are statistically analyzed to calculate an average number of each mouse, and the result is denoted by mean±SD.
The test result of stereotyped behavior is statistically analyzed using a LSD method; and observation result of the numbers of activities of the mice is statistically analyzed with repeated-measures analysis of variance and Q-test.

T1 sequence (P14416 whole entry): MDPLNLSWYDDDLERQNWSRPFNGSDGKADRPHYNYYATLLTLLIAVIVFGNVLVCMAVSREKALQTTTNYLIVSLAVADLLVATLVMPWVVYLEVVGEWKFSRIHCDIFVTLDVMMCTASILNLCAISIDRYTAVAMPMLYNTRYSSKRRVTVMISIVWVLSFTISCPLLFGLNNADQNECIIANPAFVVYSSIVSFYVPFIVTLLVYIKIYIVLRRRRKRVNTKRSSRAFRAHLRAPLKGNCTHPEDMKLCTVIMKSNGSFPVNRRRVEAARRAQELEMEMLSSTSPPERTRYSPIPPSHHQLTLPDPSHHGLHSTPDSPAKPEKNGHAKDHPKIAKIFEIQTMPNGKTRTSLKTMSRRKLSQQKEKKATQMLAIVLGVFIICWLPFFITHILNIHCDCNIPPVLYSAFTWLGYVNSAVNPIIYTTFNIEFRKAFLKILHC
T2 sequence (P61169 whole entry): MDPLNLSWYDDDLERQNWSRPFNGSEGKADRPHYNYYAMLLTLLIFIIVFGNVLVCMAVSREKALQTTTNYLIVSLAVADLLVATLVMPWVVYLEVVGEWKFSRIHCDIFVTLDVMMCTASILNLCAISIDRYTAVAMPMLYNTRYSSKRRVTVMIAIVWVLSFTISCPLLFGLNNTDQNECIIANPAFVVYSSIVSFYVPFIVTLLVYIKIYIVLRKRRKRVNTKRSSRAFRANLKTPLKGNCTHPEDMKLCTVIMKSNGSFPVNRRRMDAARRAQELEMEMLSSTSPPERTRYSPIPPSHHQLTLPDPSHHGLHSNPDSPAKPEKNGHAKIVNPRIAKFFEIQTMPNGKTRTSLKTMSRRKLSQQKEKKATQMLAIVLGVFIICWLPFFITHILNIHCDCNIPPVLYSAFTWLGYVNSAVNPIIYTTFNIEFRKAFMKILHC

O=C1CCc2ccc(OCCCCN3CCC(c4noc5cc(F)ccc45)CC3)cc2N1 [II-1, 7-[4-(4-(6-fluoro-benzisoxazolyl)-1-piperidinyl)-n-butoxy]-3,4-dihydro-2(1H)-quinolinone hydrochloride]
Ames test ([1]; TA97, TA98, TA100, TA102, with or without S9, all tested doses): negative
dose showing bacteriostatic action ([1]; TA97, test system containing S9): 5000 μg per dish
dose showing bacteriostatic action ([1]; TA98, test system without S9): 5000 μg per dish
IC50 [2]: 5.66 nM
IC50 [3]: 3380 nM
oral absorption [4]: good
LD50 [5]: > 2000 mg/kg

O=C1CCc2ccc(OCCCCN3CCN(c4cccc(Cl)c4Cl)CC3)cc2N1 [aripiprazole]
LD50 [5]: 1400 mg/kg
number of stereotyped activities of mice compared with the model group [6]: reduced significantly

Cc1nc2n(c(=O)c1CCN1CCC(c3noc4cc(F)ccc34)CC1)CCCC2 [risperidone]
LD50 [5]: 83.2 mg/kg
number of stereotyped activities of mice compared with the model group [6]: reduced significantly
